One data set relates to SK-N-SH. Briefly: Cytotoxicity in human SK-N-SH cells assessed as reduction in cell viability incubated for 48 hrs by MTT assay. Format: functional, cell-based. On the technique in general: Formazan colour is commonly taken as a measure of viable cells.
The next data set deals with MGC-803. Kind of data set: Cytotoxicity in human MGC803 cells assessed as reduction in cell viability incubated for 48 hrs by MTT assay. Format: functional, cell-based. As to conditions: MGC-803, 48 h.
The test system of the next data set is SMMC-7721. Briefly: Cytotoxicity in human SMMC7721 cells assessed as reduction in cell viability incubated for 48 hrs by MTT assay. Format: functional, cell-based. As to conditions: SMMC-7721, 48 h.
The subject of the next data set is MCF7. Kind of data set: cells. As to conditions: Homo sapiens, MCF7, 48 h.
Another data set deals with QGY-7703. Kind of data set: Cytotoxicity in human QGY7703 cells assessed as reduction in cell viability incubated for 48 hrs by MTT assay. Format: functional, cell-based. As to conditions: QGY-7703, 48 h.
The subject of a further data set is KB. Kind of data set: Cytotoxicity in human KB cells assessed as reduction in cell viability incubated for 48 hrs by MTT assay. Format: functional, cell-based.
Another data set concerns A549. Briefly: cells. As to conditions: Homo sapiens, A549, 48 h.
The subject of the next data set is Bel-7402. Kind of data set: Cytotoxicity in human Bel7402 cells assessed as reduction in cell viability incubated for 48 hrs by MTT assay. Format: functional, cell-based. Particulars: Bel-7402, 48 h.
A further data set concerns SGC-7901. Briefly: Cytotoxicity in human SGC7901 cells assessed as reduction in cell viability incubated for 48 hrs by MTT assay. Format: functional, cell-based. As to conditions: SGC-7901, 48 h.
In the next data set the test system is MDA-MB-231. Kind of data set: Cytotoxicity in human MDA-MB-231 cells assessed as reduction in cell viability incubated for 48 hrs by MTT assay. As to conditions: MDA-MB-231, 48 h. Format: functional, cell-based.
The subject of data set [1] is HepG2. Kind of data set: Cytotoxicity in human HepG2 cells assessed as reduction in cell viability incubated for 48 hrs by MTT assay. Format: functional, cell-based. Particulars: HepG2, 48 h.
The test system of data set [2] is HepG2. Kind of data set: Antitumor activity against human HepG2 cells xenografted in Balb/C mouse assessed as inhibition of tumor growth at dosed intravenously once per week for 30 days followed by 2 weeks observation. Format: functional, organism-based. In general terms: A xenograft is tissue or cells of one species grown in another, often human tumour cells in immunodeficient mice.

For data set [3], the target named is T1, DNA topoisomerase 1 (Homo sapiens) (UniProt P11387).
T1 sequence (whole entry): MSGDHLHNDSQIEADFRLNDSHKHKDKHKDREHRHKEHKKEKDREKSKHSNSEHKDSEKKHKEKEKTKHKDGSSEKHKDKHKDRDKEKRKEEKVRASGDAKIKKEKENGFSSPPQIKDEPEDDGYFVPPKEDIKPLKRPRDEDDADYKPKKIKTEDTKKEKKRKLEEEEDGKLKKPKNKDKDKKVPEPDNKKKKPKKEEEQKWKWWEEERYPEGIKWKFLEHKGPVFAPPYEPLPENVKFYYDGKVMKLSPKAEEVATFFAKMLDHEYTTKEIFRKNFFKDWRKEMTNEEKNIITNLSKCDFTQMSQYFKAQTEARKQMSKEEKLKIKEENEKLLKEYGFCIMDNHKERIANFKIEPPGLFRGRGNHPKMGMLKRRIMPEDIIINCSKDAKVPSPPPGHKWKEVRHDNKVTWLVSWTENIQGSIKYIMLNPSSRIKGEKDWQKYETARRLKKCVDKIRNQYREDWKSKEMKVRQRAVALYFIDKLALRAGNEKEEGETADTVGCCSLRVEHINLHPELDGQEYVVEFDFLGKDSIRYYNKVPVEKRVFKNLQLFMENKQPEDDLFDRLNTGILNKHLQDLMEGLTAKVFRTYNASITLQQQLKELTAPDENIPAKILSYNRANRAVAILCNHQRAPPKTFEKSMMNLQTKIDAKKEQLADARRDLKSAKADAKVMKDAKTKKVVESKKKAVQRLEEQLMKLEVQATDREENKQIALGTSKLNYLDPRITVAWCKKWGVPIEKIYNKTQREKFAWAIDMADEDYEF
Briefly: Inhibition of human recombinant topoisomerase-1 activity at 100 uM using supercoiled pHOT-1 DNA incubated for 30 mins by ethidium bromide free agarose gel elctrophoresis method.

For data set [4], the system named is Mus musculus. Kind of data set: Reduction in IL6 level in C57BL/6 mouse model of LPS-induced sepsis at 10 mg/kg, po dosed 0.5 hrs before LPS injection followed by 20 mg/kg, po dosing at 1 hr, 4 hrs, and 8 hrs after LPS treatment. Format: functional, organism-based.
In data set [5] the test system is Mus musculus. Briefly: Reduction in IL6 level in C57BL/6 mouse model of LPS-induced sepsis at 10 mg/kg, po dosed 0.5 hrs before LPS injection followed by 10 mg/kg, po dosing at 1 hr, 4 hrs, and 8 hrs after LPS treatment. Format: functional, organism-based.
Data set [6] concerns the target T1, DNA topoisomerase 1 (Homo sapiens). Briefly: Inhibition of human recombinant topoisomerase-1-mediated DNA cleavage in at 100 uM using supercoiled pHOT-1 DNA incubated for 30 mins by ethidium bromide staining based agarose gel elctrophoresis method.
Data set [7] has the same target. Briefly: Inhibition of human recombinant topoisomerase-1 activity at 50 uM using supercoiled pHOT-1 DNA incubated for 30 mins by ethidium bromide free agarose gel elctrophoresis method.
For data set [8] the target is unchanged. Kind of data set: Inhibition of human recombinant topoisomerase-1-mediated DNA cleavage in at 50 uM using supercoiled pHOT-1 DNA incubated for 30 mins by ethidium bromide staining based agarose gel elctrophoresis method.
The nature of data set [9]: Aqueous solubility of the compound. Format: physicochemical. Particulars: buffer.
For data set [10], the system named is Mus musculus. Kind of data set: Toxicity in Balb/C mouse administered as daily dose for 1 week measured daily for up to 28 days. Format: organism-based. As to conditions: in vivo.
Data set [11] relates to Mus musculus. Briefly: Toxicity in Balb/C mouse administered as single dose measured daily for up to 28 days. Format: organism-based. As to conditions: in vivo, 672 h.
Data set [12] concerns Mus musculus. Briefly: Reduction in IL6 level in C57BL/6 mouse model of LPS-induced sepsis at 8 mg/kg, po dosed 0.5 hrs before LPS injection followed by 8 mg/kg, po dosing at 1 hr, 4 hrs, and 8 hrs after LPS treatment. Format: functional, organism-based.
The subject of data set [13] is Mus musculus. Kind of data set: Reduction in IL6 level in C57BL/6 mouse model of LPS-induced sepsis at 4 mg/kg, iv dosed 0.5 hrs before LPS injection followed by 4 mg/kg, iv dosing at 1 hr, 4 hrs, and 8 hrs after LPS treatment. Format: functional, organism-based.
The subject of data set [14] is Mus musculus. Kind of data set: Reduction in IL6 level in C57BL/6 mouse model of LPS-induced sepsis at 4 mg/kg, po dosed 0.5 hrs before LPS injection followed by 4 mg/kg, po dosing at 1 hr, 4 hrs, and 8 hrs after LPS treatment. Format: functional, organism-based.
For data set [15], the system named is Mus musculus. Briefly: Reduction in IL6 level in C57BL/6 mouse model of LPS-induced sepsis at 2 mg/kg, iv dosed 0.5 hrs before LPS injection followed by 2 mg/kg, iv dosing at 1 hr, 4 hrs, and 8 hrs after LPS treatment. Format: functional, organism-based.

Here are results for 11 compounds from ChEMBL document CHEMBL4196217, “Structure-Based Drug Design and Identification of H2O-Soluble and Low Toxic Hexacyclic Camptothecin Derivatives with Improved Efficacy in Cancer and Lethal Inflammation Models in Vivo” (J Med Chem, 2018).

Calls of active or inactive are those of the source. No cut-off for these calls is given here.

Description for A549: Cytotoxicity in human A549 cells assessed as reduction in cell viability incubated for 48 hrs by MTT assay
Description for MCF7: Cytotoxicity in human MCF7 cells assessed as reduction in cell viability incubated for 48 hrs by MTT assay

For `CC[C@@]1(OC(=O)CNC(=O)CCC(=O)O)C(=O)OCc2c1cc1n(c2=O)Cc2cc3c(ccc4ocnc43)nc2-1`, the IC50 in the data set with SK-N-SH is 0.348 µM; in the data set on MGC-803 it was 0.064 µM; with SMMC-7721, above 10 µM; with MCF7, above 10 µM; in the data set on QGY-7703, above 10 µM; in the data set with KB it was 0.916 µM. In addition, the IC50 in the data set with A549 was 0.092 µM; with Bel-7402, 0.275 µM; in the data set with SGC-7901 it was above 10 µM; with MDA-MB-231, 0.348 µM; in the data set on HepG2 [1], 0.055 µM.
As for `CC[C@@]1(OC(=O)CNC(=O)CCC(=O)O)C(=O)OCc2c1cc1n(c2=O)Cc2cc3c(ccc4oc(C(C)C)nc43)nc2-1`, the TGI result in the data set on HepG2 [2] was “Dose-dependent effect”. Also, the inhibition entry in data set [3], in data set [6], in data set [7] and in [8] was “Active” in each case. For the same compound, the outcome in the data set with Mus musculus [4] and with Mus musculus [5] was Active.
Turning to `CC[C@@]1(O)C(=O)OCc2c1cc1n(c2=O)Cc2cc3c(ccc4oncc43)nc2-1`, the 50% inhibitory concentration (IC50) in the data set with SK-N-SH was 0.463 µM; in the data set on MGC-803 it was 0.514 µM; with SMMC-7721 it was above 10 µM; with MCF7, 1.16 µM; in the data set on QGY-7703, above 10 µM; in the data set on KB, 3.34 µM. Further, the IC50 in the data set on A549 is 1.03 µM; in the data set with Bel-7402, 10.5 µM; in the data set on SGC-7901, above 10 µM; with MDA-MB-231, 0.488 µM; with HepG2 [1], 0.064 µM.
On to `CC[C@@]1(O)C(=O)OCc2c1cc1n(c2=O)Cc2cc3c(ccc4oc(-c5ccccn5)nc43)nc2-1`, for which the IC50 is 0.054 µM in the data set on MGC-803; above 10 µM in the data set with SMMC-7721; 6.44 µM in the data set with MCF7; above 10 µM in the data set on QGY-7703; 2.04 µM in the data set on KB; 1.5 µM with A549. Besides, the IC50 was 1.93 µM with Bel-7402, above 10 µM in the data set with SGC-7901, 2 µM in the data set on MDA-MB-231 and 0.071 µM in the data set on HepG2 [1].
As for `CC[C@@]1(O)C(=O)OCc2c1cc1n(c2=O)Cc2cc3c(ccc4ocnc43)nc2-1`, the IC50 in the data set on MGC-803 worked out at 0.231 µM; with SMMC-7721, 3.08 µM; with MCF7, 2.31 µM; with QGY-7703, 11.6 µM; in the data set with KB, 2.57 µM; with A549, 2.06 µM. Also, the IC50 in the data set on Bel-7402 is 2.44 µM; in the data set on SGC-7901, above 10 µM; with MDA-MB-231 it was 1.54 µM; in the data set on HepG2 [1], 0.18 µM.
`CC[C@@]1(OC(=O)CNC(=O)CCC(=O)[O-])C(=O)OCc2c1cc1n(c2=O)Cc2cc3c4c(ccc3nc2-1)OC(C(C)C)NC4=O.[Na+]` (some centres undefined) yielded a solubility in data set [9] of 3400 µg/mL. The MTD with Mus musculus [10] is 10 mg/kg; in the data set with Mus musculus [11], 16 mg/kg.
For `CC[C@@]1(OC(=O)CNC(=O)CCC(=O)O)C(=O)OCc2c1cc1n(c2=O)Cc2cc3c(ccc4oncc43)nc2-1`, the IC50 with SK-N-SH is 0.549 µM; in the data set with MGC-803, 0.275 µM; in the data set on SMMC-7721, above 10 µM; with MCF7, above 10 µM; in the data set on QGY-7703, above 10 µM; in the data set with KB it was 7.14 µM. Further, the 50% inhibitory concentration (IC50) in the data set with A549 is 1.83 µM; in the data set on Bel-7402, 2.02 µM; in the data set with SGC-7901, above 10 µM; in the data set with MDA-MB-231, 0.641 µM; in the data set on HepG2 [1] it was 0.348 µM.
For the compound `CC[C@@]1(OC(=O)CNC(=O)CCC(=O)O)C(=O)OCc2c1cc1n(c2=O)Cc2cc3c4c(ccc3nc2-1)OC(C(C)C)NC4=O` (some centres undefined), the TGI entry with HepG2 [2] is “Dose-dependent effect”. Also, the inhibition entry in [3], in data set [7] and in data set [8] was “inactive” throughout. The result in the data set with Mus musculus [12], in the data set with Mus musculus [13], in the data set with Mus musculus [14] and in the data set with Mus musculus [15] was Active.
`CCCCc1nc2c(ccc3nc4c(cc32)Cn2c-4cc3c(c2=O)COC(=O)[C@]3(O)CC)o1`: the IC50 in the data set with MGC-803 was 0.085 µM; in the data set with SMMC-7721 it was above 10 µM; with MCF7 it was 2.14 µM; with QGY-7703 it was above 10 µM; with KB, 2.25 µM; in the data set with A549, 1.12 µM. The concentration for half-maximal inhibition (IC50) was 2.02 µM with Bel-7402, above 10 µM in the data set with SGC-7901, 0.562 µM in the data set with MDA-MB-231 and 0.063 µM with HepG2 [1].
The compound `CC[C@@]1(OC(=O)CNC(=O)CCC(=O)[O-])C(=O)OCc2c1cc1n(c2=O)Cc2cc3c(ccc4oc(C(C)C)nc43)nc2-1.[Na+]` came in with a solubility in data set [9] of 5070 µg/mL. Besides, the MTD was found to be 30 mg/kg in the data set on Mus musculus [10] and 60 mg/kg in the data set with Mus musculus [11].
Consider `CC[C@@]1(O)C(=O)OCc2c1cc1n(c2=O)Cc2cc3c(ccc4oc(CC(C)C)nc43)nc2-1`, for which the IC50 in the data set on MGC-803 is 0.09 µM; in the data set on SMMC-7721, 11 µM; in the data set with MCF7, 7.87 µM; in the data set with QGY-7703, above 10 µM; in the data set on KB it was 2.2 µM; in the data set with A549, 3.37 µM. Also, the IC50 in the data set with Bel-7402 is 2.14 µM; in the data set with SGC-7901 it was above 10 µM; with MDA-MB-231 it was 2.14 µM; in the data set on HepG2 [1], 0.079 µM.

One may read the IC50 as the concentration needed to halve the response being measured. The solubility is the concentration that dissolves in the medium under given conditions.
